# pEC50, pIC50: −log10 of the molar value. “And” between values parts separate entries of the source, which are not always exact repeats. Equal values may be shown once. Read-outs that look alike come from different tables or passages of the source.
# Legend:
# CD73 [1] = biological target: T1, CD73 (Homo sapiens (Human), UniProt P21589); experiment: MDA-MB-231 Cell Based CD73 Activity Assay (DMEM); conditions: MDA-MB-231-GFP cells, DMEM medium with 10% human plasma, 200 uM AMP
# CD73 [2] = biological target: T1, CD73; assay type: biochemical; conditions: 1 mM NaH2PO4 in enzyme buffer, CD73 0.3 nM, AMP 15 uM
# CD73 [3] = biological target: T1, CD73; experiment: MDA-MB-231 Cell Based CD73 Activity Assay; conditions: MDA-MB-231-GFP cells, RPMI medium with 10% human plasma, 200 uM AMP
# CD73 [4] = biological target: T1, CD73; experiment: CD73 Biochemical IC50 Assay; conditions: CD73 0.3 nM, AMP 15 uM, 25 mM Tris pH 7.4, 5 mM MgCl2
# Protocol: CD73 Biochemical IC50 Assay
# Compound serial dilutions were pre-spotted into Thermo Nunc assay plate. 50 μL CD73 enzyme buffer (CD73 purchased from R&D system=0.6 nM, 25 mM Tris, pH 7.4, 5 mM MgCl2) was added into the assay plate and incubated for 15 mins. […] The samples were run using Rapid fire.
# T1 sequence (P21589 27-574): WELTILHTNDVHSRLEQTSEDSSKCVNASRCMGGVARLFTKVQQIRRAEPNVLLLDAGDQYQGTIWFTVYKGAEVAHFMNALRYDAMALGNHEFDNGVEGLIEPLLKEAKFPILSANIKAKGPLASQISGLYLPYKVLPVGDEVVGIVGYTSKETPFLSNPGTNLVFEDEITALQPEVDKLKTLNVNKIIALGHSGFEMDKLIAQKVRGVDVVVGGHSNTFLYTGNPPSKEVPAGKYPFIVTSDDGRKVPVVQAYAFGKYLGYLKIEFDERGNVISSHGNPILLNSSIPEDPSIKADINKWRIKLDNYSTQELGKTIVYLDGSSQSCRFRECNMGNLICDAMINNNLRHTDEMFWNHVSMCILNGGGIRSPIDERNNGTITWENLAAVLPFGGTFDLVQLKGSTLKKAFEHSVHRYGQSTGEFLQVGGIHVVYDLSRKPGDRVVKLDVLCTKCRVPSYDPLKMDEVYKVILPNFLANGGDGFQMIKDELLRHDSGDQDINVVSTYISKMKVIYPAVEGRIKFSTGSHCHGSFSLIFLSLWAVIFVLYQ
pEC50 (CD73 [1]),pIC50 (CD73 [2]),pEC50 (CD73 [3]),pIC50 (CD73 [4]),Structure (SMILES)
8.38,9.03,8.68 and 8.73,7.87 and 7.89,"O=c1[nH]cc(-c2cc([C@H]3C[C@@H]3c3ccccc3)c3nccn3n2)c(=O)[nH]1 (racemic) [Example 7, 5-(8-((1S,2S)-2-phenylcyclopropyl)imidazo[1,2-b]pyridazin-6-yl)pyrimidine-2,4-(1H,3H)-dione and 5-(8-((1R,2R)-2-phenylcyclopropyl)imidazo[1,2-b]pyridazin-6-yl)pyrimidine-2,4-(1H,3H)-dione]"
,8.68,8.12,7.54,"O=c1[nH]cc(-c2cc([C@H]3C[C@@H]3c3ccc(C(F)(F)F)cc3)c3nccn3n2)c(=O)[nH]1 (racemic) [Example 42, 5-[8-[(1S,2S)-2-[4-(trifluoromethyl)phenyl]cyclopropyl]imidazo[1,2-b]pyridazin-6-yl]-1H-pyrimidine-2,4-dione and 5-[8-[(1R,2R)-2-[4-(trifluoromethyl)phenyl]cyclopropyl]imidazo[1,2-b]pyridazin-6-yl]-1H-pyrimidine-2,4-dione]"
,8.94,8.57,7.70,"O=c1[nH]cc(-c2cc([C@H]3C[C@@H]3c3ccccn3)c3nccn3n2)c(=O)[nH]1 (racemic) [Example 52, 5-[8-[(1S,2S)-2-(2-pyridyl)cyclopropyl]imidazo[1,2-b]pyridazin-6-yl]-1H-pyrimidine-2,4-dione and 5-[8-[(1R,2R)-2-(2-pyridyl)cyclopropyl]imidazo[1,2-b]pyridazin-6-yl]-1H-pyrimidine-2,4-dione]"
,8.82,8.29,7.68,"O=c1[nH]cc(-c2cc([C@H]3C[C@@H]3c3cccnc3)c3nccn3n2)c(=O)[nH]1 (racemic) [Example 53, 5-[8-[(1S,2S)-2-(3-pyridyl)cyclopropyl]imidazo[1,2-b]pyridazin-6-yl]-1H-pyrimidine-2,4-dione and 5-[8-[(1R,2R)-2-(3-pyridyl)cyclopropyl]imidazo[1,2-b]pyridazin-6-yl]-1H-pyrimidine-2,4-dione]"
,8.70,8.47,7.75,"O=c1[nH]cc(-c2cc([C@H]3C[C@@H]3c3ccncc3)c3nccn3n2)c(=O)[nH]1 (racemic) [Example 54, 5-[8-[(1S,2S)-2-(4-pyridyl)cyclopropyl]imidazo[1,2-b]pyridazin-6-yl]-1H-pyrimidine-2,4-dione and 5-[8-[(1R,2R)-2-(4-pyridyl)cyclopropyl]imidazo[1,2-b]pyridazin-6-yl]-1H-pyrimidine-2,4-dione]"
7.50,8.01,7.76,7.40,"O=c1[nH]cc(-c2cc(N3C[C@H](F)[C@@H](F)C3)c3nccn3n2)c(=O)[nH]1 (racemic) [Example 73, 5-[8-[(3S,4S)-3,4-difluoropyrrolidin-1-yl]imidazo[1,2-b]pyridazin-6-yl]-1H-pyrimidine-2,4-dione and 5-[8-[(3R,4R)-3,4-difluoropyrrolidin-1-yl]imidazo[1,2-b]pyridazin-6-yl]-1H-pyrimidine-2,4-dione]"
7.75,8.87,8.22,7.36,"N#Cc1cc(F)cc([C@H]2C[C@@H]2c2cc(-c3c[nH]c(=O)[nH]c3=O)nn3ccnc23)c1 (racemic) [Example 85, 3-[(1S,2S)-2-[6-(2,4-dioxo-1H-pyrimidin-5-yl)imidazo[1,2-b]pyridazin-8-yl]cyclopropyl]-5-fluoro-benzonitrile and 3-[(1R,2R)-2-[6-(2,4-dioxo-1H-pyrimidin-5-yl)imidazo[1,2-b]pyridazin-8-yl]cyclopropyl]-5-fluoro-benzonitrile]"
7.78,8.25,7.66,6.82,"O=c1[nH]cc(-c2cc([C@H]3C[C@@H]3c3ccc(F)cc3)c3nc(C4CC4)cn3n2)c(=O)[nH]1 (racemic) [Example 86, 5-[2-cyclopropyl-8-[(1S,2S)-2-(4-fluorophenyl)cyclopropyl]imidazo[1,2-b]pyridazin-6-yl]-1H-pyrimidine-2,4-dione and 5-[2-cyclopropyl-8-[(1R,2R)-2-(4-fluorophenyl)cyclopropyl]imidazo[1,2-b]pyridazin-6-yl]-1H-pyrimidine-2,4-dione]"
7.75,8.70,8.14,7.78,"O=c1[nH]cc(-c2cc([C@H]3C[C@@H]3c3ccc(Cl)c(F)c3)c3nccn3n2)c(=O)[nH]1 (racemic) [Example 98, 5-(8-((1S,2S)-2-(4-chloro-3-fluorophenyl)cyclopropyl)imidazo[1,2-b]pyridazin-6-yl)pyrimidine-2,4(1H,3H)-dione and 5-(8-((1R,2R)-2-(4-chloro-3-fluorophenyl)cyclopropyl)imidazo[1,2-b]pyridazin-6-yl)pyrimidine-2,4(1H,3H)-dione]"
7.54,8.53,8.12,7.50,"O=c1[nH]cc(-c2cc([C@H]3C[C@@H]3c3ccc4c(c3)OC(F)(F)O4)c3nccn3n2)c(=O)[nH]1 (racemic) [Example 110, 5-(8-((1S,2S)-2-(2,2-difluorobenzo[d][1,3]dioxol-5-yl)cyclopropyl)imidazo[1,2-b]pyridazin-6-yl)pyrimidine-2,4(1H,3H)-dione and 5-(8-41R,2R)-2-(2,2-difluorobenzo[d][1,3]dioxol-5-yl)cyclopropyl)imidazo[1,2-b]pyridazin-6-yl)pyrimidine-2,4(1H,3H)-dione]"
7.89,8.75,8.38,7.88,"N#Cc1ccc([C@H]2C[C@@H]2c2cc(-c3c[nH]c(=O)[nH]c3=O)nn3ccnc23)cc1F (racemic) [Example 115, 4-((1S,2S)-2-(6-(2,4-dioxo-1,2,3,4-tetrahydropyrimidin-5-yl)imidazo[1,2-b]pyridazin-8-yl)cyclopropyl)-2-fluorobenzonitrile]"
7.52,8.32,7.85,7.52,"O=c1[nH]cc(-c2cc(N3CCC(c4ccc(F)cc4)C3)c3nccn3n2)c(=O)[nH]1 (stereo in doubt) [Example 67, 5-[8-[(3R)-3-(4-fluorophenyl)pyrrolidin-1-yl]imidazo[1,2-b]pyridazin-6-yl]-1H-pyrimidine-2,4-dione]"
7.23,7.71,7.54,6.98,"O=c1[nH]cc(-c2cc(N3CCCC3)c3nccn3n2)c(=O)[nH]1 [Example 9, 5-(8-pyrrolidin-1-ylimidazo[1,2-b]pyridazin-6-yl)-1H-pyrimidine-2,4-dione]"
6.98,7.45,7.33 and 7.35,7.25 and 7.19,"O=c1[nH]cc(-c2cc(C3CC3)c3nccn3n2)c(=O)[nH]1 [Example 22, 5-(8-cyclopropylimidazo[1,2-b]pyridazin-6-yl)pyrimidine-2,4(1H,3H)-dione]"
7.49,8.07,7.60,7.56,"O=c1[nH]cc(-c2cc(N3CC(C(F)(F)F)C3)c3nccn3n2)c(=O)[nH]1 [Example 62, 5-(8-(3-(trifluoromethyl)azetidin-1-yl)imidazo[1,2-b]pyridazin-6-yl)pyrimidine-2,4(1H,3H)-dione]"
7.32,7.54,7.46,7.15,"CC1(C)CN(c2cc(-c3c[nH]c(=O)[nH]c3=O)nn3ccnc23)C1 [Example 63, 5-(8-(3,3-dimethylazetidin-1-yl)imidazo[1,2-b]pyridazin-6-yl)pyrimidine-2,4(1H,3H)-dione]"
,8.18,7.63,7.81,"CC1(C)CCN(c2cc(-c3c[nH]c(=O)[nH]c3=O)nc3ncnn23)C1 [Example 92, 5-(7-(3,3-dimethylpyrrolidin-1-yl)-[1,2,4]triazolo[1,5-a]pyrimidin-5-yl)pyrimidine-2,4(1H,3H)-dione]"
,,7.18,6.11,"O=c1[nH]cc(-c2cc(C3CC3)c3nc(-c4ccccc4C(F)(F)F)cn3n2)c(=O)[nH]1 [Example 96, 5-(8-cyclopropyl-2-(2-(trifluoromethyl)phenyl)imidazo[1,2-b]pyridazin-6-yl)pyrimidine-2,4(1H,3H)-dione]"
,,5.69,< 5.60,"O=c1[nH]cc(-c2cc(C3CC3)c3nc(-c4ccncc4)cn3n2)c(=O)[nH]1 [Example 97, 5-(8-cyclopropyl-2-(pyridin-4-yl)imidazo[1,2-b]pyridazin-6-yl)pyrimidine-2,4(1H,3H)-dione]"
,,6.59,6.33,"O=c1[nH]cc(-c2cc(C3CC3)c3nc(-c4cccnc4)cn3n2)c(=O)[nH]1 [Example 102, 5-(8-cyclopropyl-2-(pyridin-3-yl)imidazo[1,2-b]pyridazin-6-yl)pyrimidine-2,4(1H,3H)-dione]"
,,7.35,7.15,"O=c1[nH]cc(-c2cc(C3CC3)c3nc(-c4ccccn4)cn3n2)c(=O)[nH]1 [Example 103, 5-(8-cyclopropyl-2-(pyridin-2-yl)imidazo[1,2-b]pyridazin-6-yl)pyrimidine-2,4(1H,3H)-dione]"
,8.53,7.89,7.35,"O=c1[nH]cc(-c2cc(N3CC(F)(F)C(F)(F)C3)c3nccn3n2)c(=O)[nH]1 [Example 109, 5-(8-(3,3,4,4-tetrafluoropyrrolidin-1-yl)imidazo[1,2-b]pyridazin-6-yl)pyrimidine-2,4(1H,3H)-dione]"
